In data set [1] the target is bovine slow myosin subfragment 1 (slow S1, masseter) (Bos taurus, UniProt Q9BE39). The data set is described as follows: biochemical.
Data set [2] has as its system bovine fast myosin subfragment 1 (fast S1, cutaneous trunci).
Substrate in the data set “purified protein”: O=P(O)(O)OP(=O)(O)OP(=O)(O)O
Nature of the data set: purified protein. The note with it: Mg2+.

As usually defined, the Ki is a measure of affinity in units of concentration, obtained from inhibition or displacement. A higher Ki goes with a looser hold on the target. A word on the Km: it is the substrate concentration at which the rate is half of its maximum.

bovine slow myosin subfragment 1 (slow S1, masseter), sequence (P85100 2-199 partner, one chain of several): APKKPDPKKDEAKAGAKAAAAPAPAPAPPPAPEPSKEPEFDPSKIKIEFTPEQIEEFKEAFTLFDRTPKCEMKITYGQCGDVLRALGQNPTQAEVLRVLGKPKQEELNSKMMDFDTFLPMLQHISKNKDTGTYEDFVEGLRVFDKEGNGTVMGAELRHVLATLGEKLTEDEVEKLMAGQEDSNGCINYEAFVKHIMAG

Regarding `O=P(O)(O)OP(=O)(O)O` [PPi, pyrophosphate], the results for the Ki in data set [1] and in data set [2] were 18 ± 1.8 µM and 88 ± 6.9 µM, respectively.

B1: bovine slow myosin subfragment 1 (slow S1, masseter) (Bos taurus) (protein)
chain: MVDAEMAAFGEAAPYLRKSEKERLEAQTRPFDLKKDVFVPDDKEEFVKATILSREGGKVTAETEHGKTVTVKEDQVLQQNPPKFDKIEDMAMLTFLHEPAVLYNLKERYASWMIYTYSGLFCVTINPYKWLPVYNAEVVAAYRGKKRSEAPPHIFSISDNAYQYMLTDRENQSILITGESGAGKTVNTKRVIQYFAVIAAIGDRSKKEQATGKGTLEDQIIQANPALEAFGNAKTVRNDNSSRFGKFIRIHFGATGKLASADIETYLLEKSRVIFQLKAERDYHIFYQILSNKKPELLDMLLITNNPYDYAFISQGETTVASIDDAEELMATDNAFDVLGFTTEEKNSMYKLTGAIMHFGNMKFKLKQREEQAEPDGTEEADKSAYLMGLNSADLLKGLCHPRVKVGNEYVTKGQNVQQVVYAKGALAKAVYERMFNWMVTRINATLETKQPRQYFIGVLDIAGFEIFDFNSFEQLCINFTNEKLQQFFNHHMFVLEQEEYKKEGIEWEFIDFGMDLQACIDLIEKPMGIMSILEEECMFPKATDMTFKAKLFDNHLGKSSNFQKPRNIKGKPEAHFSLIHYAGTVDYNIIGWLQKNKDPLNETVVDLYKKSSLKMLSSLFANYAGFDTPIEKGKGKAKKGSSFQTVSALHRENLNKLMTNLRSTHPHFVRCIIPNETKSPGVIDNPLVMHQLRCNGVLEGIRICRKGFPNRILYGDFRQRYRILNPAAIPEGQFIDSRKGAEKLLGSLDIDHNQYKFGHTKVFFKAGLLGLLEEMRDERLSRIITRIQAQSRGVLSRMEFKKLLERRDSLLIIQWNIRAFMGVKNWPWMKLYFKIKPLL
As for B1, in “purified protein”, the Michaelis-Menten constant (Km) worked out at 380 ± 130 µM.

The values above are taken from PMC2866097 (Meat science, 2010).
